Results published in patent US8802597B2, “Herbicidal pyrimidines” (E I du Pont de Nemours and Company, priority 2003, dated 2014).

Columns and labels:
Assay in all cases: Test A pre/postemergence
Type in all cases: in vivo
[1] = tested on: velvetleaf (Abutilon theophrasti)
Summary of the method: (§1)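 Greenhouse herbicide test with preemergence directed soil spray and postemergence foliar spray at the 1- to 2-leaf stage; visual control rating 0–100 versus untreated at ~10 days.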

[2] = tested on: redroot pigweed (Amaranthus retroflexus)
Summary of the method: as §1

[3] = tested on: morningglory (Ipomoea spp.)
Summary of the method: as §1

[4] = tested on: barnyardgrass (Echinochloa crus-galli)
Summary of the method: as §1

[5] = tested on: giant foxtail (Setaria faberi)
Summary of the method: as §1

[6] = tested on: crabgrass (Digitaria sanguinalis)
Summary of the method: as §1

[7] = Postemergence, 125 g ai/ha, 0 to 100 scale (0 no effect, 100 complete control)
[8] = Postemergence, 500 g ai/ha, 0 to 100 scale (0 no effect, 100 complete control)
[9] = Preemergence, 125 g ai/ha, 0 to 100 scale where 0 is no effect and 100 is complete control, approximately ten days
[10] = Preemergence, 500 g ai/ha, 0 to 100 scale where 0 is no effect and 100 is complete control, approximately ten days

CCOC(=O)c1nc(-c2ccc(C(F)(F)F)cc2)nc(N)c1Cl [Compound 104]
Plant response rating, Velvetleaf [1, 7]: 70 | Plant response rating, Velvetleaf [1, 8]: 80 | Plant response rating, Velvetleaf [1, 9]: 0 | Plant response rating, Velvetleaf [1, 10]: 10 | Plant response rating, Pigweed [2, 7]: 30 | Plant response rating, Pigweed [2, 8]: 45 | Plant response rating, Pigweed [2, 9]: 0 | Plant response rating, Pigweed [2, 10]: 10 | Plant response rating, Morningglory [3, 7]: 25 | Plant response rating, Morningglory [3, 8]: 40 | Plant response rating, Morningglory [3, 9]: 0 | Plant response rating, Morningglory [3, 10]: 0 | Plant response rating, Barnyardgrass [4, 7]: 0 | Plant response rating, Barnyardgrass [4, 8]: 10 | Plant response rating, Barnyardgrass [4, 9]: 0 | Plant response rating, Barnyardgrass [4, 10]: 5 | Plant response rating, Foxtail, Giant [5, 7]: 0 | Plant response rating, Foxtail, Giant [5, 8]: 5 | Plant response rating, Foxtail, Giant [5, 9]: 0 | Plant response rating, Foxtail, Giant [5, 10]: 5 | Plant response rating, Crabgrass [6, 7]: 15 | Plant response rating, Crabgrass [6, 8]: 30 | Plant response rating, Crabgrass [6, 9]: 0 | Plant response rating, Crabgrass [6, 10]: 10

Cc1ccc(-c2nc(N)c(Br)c(C(=O)O)n2)cc1 [Compound 89]
Plant response rating, Velvetleaf [1, 7]: 70 | Plant response rating, Velvetleaf [1, 8]: 95 | Plant response rating, Velvetleaf [1, 9]: 20 | Plant response rating, Velvetleaf [1, 10]: 75 | Plant response rating, Pigweed [2, 7]: 50 | Plant response rating, Pigweed [2, 8]: 100 | Plant response rating, Pigweed [2, 9]: 80 | Plant response rating, Pigweed [2, 10]: 100 | Plant response rating, Morningglory [3, 7]: 0 | Plant response rating, Morningglory [3, 8]: 30 | Plant response rating, Morningglory [3, 9]: 0 | Plant response rating, Morningglory [3, 10]: 0 | Plant response rating, Barnyardgrass [4, 7]: 60 | Plant response rating, Barnyardgrass [4, 8]: 85 | Plant response rating, Barnyardgrass [4, 9]: 0 | Plant response rating, Barnyardgrass [4, 10]: 50 | Plant response rating, Foxtail, Giant [5, 7]: 10 | Plant response rating, Foxtail, Giant [5, 8]: 45 | Plant response rating, Foxtail, Giant [5, 9]: 0 | Plant response rating, Foxtail, Giant [5, 10]: 10 | Plant response rating, Crabgrass [6, 7]: 0 | Plant response rating, Crabgrass [6, 8]: 10 | Plant response rating, Crabgrass [6, 9]: 0 | Plant response rating, Crabgrass [6, 10]: 60

CCOC(=O)c1nc(-c2ccccc2F)nc(N)c1Cl [Compound 106]
Plant response rating, Velvetleaf [1, 7]: 25 | Plant response rating, Velvetleaf [1, 8]: 55 | Plant response rating, Velvetleaf [1, 9]: 5 | Plant response rating, Velvetleaf [1, 10]: 30 | Plant response rating, Pigweed [2, 7]: 15 | Plant response rating, Pigweed [2, 8]: 70 | Plant response rating, Pigweed [2, 9]: 0 | Plant response rating, Pigweed [2, 10]: 30 | Plant response rating, Morningglory [3, 7]: 20 | Plant response rating, Morningglory [3, 8]: 35 | Plant response rating, Morningglory [3, 9]: 0 | Plant response rating, Morningglory [3, 10]: 0 | Plant response rating, Barnyardgrass [4, 7]: 0 | Plant response rating, Barnyardgrass [4, 8]: 5 | Plant response rating, Barnyardgrass [4, 9]: 0 | Plant response rating, Barnyardgrass [4, 10]: 5 | Plant response rating, Foxtail, Giant [5, 7]: 0 | Plant response rating, Foxtail, Giant [5, 8]: 0 | Plant response rating, Foxtail, Giant [5, 9]: 0 | Plant response rating, Foxtail, Giant [5, 10]: 0 | Plant response rating, Crabgrass [6, 7]: 0 | Plant response rating, Crabgrass [6, 8]: 0 | Plant response rating, Crabgrass [6, 9]: 0 | Plant response rating, Crabgrass [6, 10]: 0

CS(=O)(=O)NC(=O)c1nc(C2CC2)nc(N)c1Cl [Compound 132]
Plant response rating, Velvetleaf [1, 7]: 50 | Plant response rating, Velvetleaf [1, 8]: 60 | Plant response rating, Velvetleaf [1, 9]: 0 | Plant response rating, Velvetleaf [1, 10]: 5 | Plant response rating, Pigweed [2, 7]: 50 | Plant response rating, Pigweed [2, 8]: 65 | Plant response rating, Pigweed [2, 9]: 15 | Plant response rating, Pigweed [2, 10]: 65 | Plant response rating, Morningglory [3, 7]: 45 | Plant response rating, Morningglory [3, 8]: 50 | Plant response rating, Morningglory [3, 9]: 0 | Plant response rating, Morningglory [3, 10]: 0 | Plant response rating, Barnyardgrass [4, 7]: 0 | Plant response rating, Barnyardgrass [4, 8]: 10 | Plant response rating, Barnyardgrass [4, 9]: 0 | Plant response rating, Barnyardgrass [4, 10]: 0 | Plant response rating, Foxtail, Giant [5, 7]: 0 | Plant response rating, Foxtail, Giant [5, 8]: 5 | Plant response rating, Foxtail, Giant [5, 9]: 0 | Plant response rating, Foxtail, Giant [5, 10]: 0 | Plant response rating, Crabgrass [6, 7]: 5 | Plant response rating, Crabgrass [6, 8]: 10 | Plant response rating, Crabgrass [6, 9]: 0 | Plant response rating, Crabgrass [6, 10]: 0

CCOC(=O)COc1nc(-c2ccc(Cl)cc2)nc(N)c1Cl [Compound 114]
Plant response rating, Velvetleaf [1, 7]: 0 | Plant response rating, Velvetleaf [1, 8]: 5 | Plant response rating, Velvetleaf [1, 9]: 0 | Plant response rating, Velvetleaf [1, 10]: 0 | Plant response rating, Pigweed [2, 7]: 45 | Plant response rating, Pigweed [2, 8]: 55 | Plant response rating, Pigweed [2, 9]: 0 | Plant response rating, Pigweed [2, 10]: 0 | Plant response rating, Morningglory [3, 7]: 40 | Plant response rating, Morningglory [3, 8]: 55 | Plant response rating, Morningglory [3, 9]: 0 | Plant response rating, Morningglory [3, 10]: 0 | Plant response rating, Barnyardgrass [4, 7]: 0 | Plant response rating, Barnyardgrass [4, 8]: 0 | Plant response rating, Barnyardgrass [4, 9]: 0 | Plant response rating, Barnyardgrass [4, 10]: 0 | Plant response rating, Foxtail, Giant [5, 7]: 0 | Plant response rating, Foxtail, Giant [5, 8]: 0 | Plant response rating, Foxtail, Giant [5, 9]: 0 | Plant response rating, Foxtail, Giant [5, 10]: 0 | Plant response rating, Crabgrass [6, 7]: 0 | Plant response rating, Crabgrass [6, 8]: 0 | Plant response rating, Crabgrass [6, 9]: 0 | Plant response rating, Crabgrass [6, 10]: 0

Nc1nc(C2CC2)nc(C(=O)Oc2ccc(Cl)cc2)c1Cl [Compound 145]
Plant response rating, Velvetleaf [1, 7]: 75 | Plant response rating, Velvetleaf [1, 8]: 95 | Plant response rating, Velvetleaf [1, 9]: 70 | Plant response rating, Velvetleaf [1, 10]: 85 | Plant response rating, Pigweed [2, 7]: 80 | Plant response rating, Pigweed [2, 8]: 90 | Plant response rating, Pigweed [2, 9]: 65 | Plant response rating, Pigweed [2, 10]: 85 | Plant response rating, Morningglory [3, 7]: 80 | Plant response rating, Morningglory [3, 8]: 95 | Plant response rating, Morningglory [3, 9]: 75 | Plant response rating, Morningglory [3, 10]: 100 | Plant response rating, Barnyardgrass [4, 7]: 30 | Plant response rating, Barnyardgrass [4, 8]: 60 | Plant response rating, Barnyardgrass [4, 9]: 30 | Plant response rating, Barnyardgrass [4, 10]: 75 | Plant response rating, Foxtail, Giant [5, 7]: 20 | Plant response rating, Foxtail, Giant [5, 8]: 70 | Plant response rating, Foxtail, Giant [5, 9]: 0 | Plant response rating, Foxtail, Giant [5, 10]: 60 | Plant response rating, Crabgrass [6, 7]: 5 | Plant response rating, Crabgrass [6, 8]: 30 | Plant response rating, Crabgrass [6, 9]: 65 | Plant response rating, Crabgrass [6, 10]: 80

COC(=O)c1nc(-c2ccc(S(C)(=O)=O)cc2)nc(N)c1Cl [Compound 122]
Plant response rating, Velvetleaf [1, 7]: 0 | Plant response rating, Velvetleaf [1, 8]: 0 | Plant response rating, Velvetleaf [1, 9]: 0 | Plant response rating, Velvetleaf [1, 10]: 0 | Plant response rating, Pigweed [2, 7]: 0 | Plant response rating, Pigweed [2, 8]: 0 | Plant response rating, Pigweed [2, 9]: 0 | Plant response rating, Pigweed [2, 10]: 0 | Plant response rating, Morningglory [3, 7]: 0 | Plant response rating, Morningglory [3, 8]: 0 | Plant response rating, Morningglory [3, 9]: 0 | Plant response rating, Morningglory [3, 10]: 0 | Plant response rating, Barnyardgrass [4, 7]: 0 | Plant response rating, Barnyardgrass [4, 8]: 0 | Plant response rating, Barnyardgrass [4, 9]: 0 | Plant response rating, Barnyardgrass [4, 10]: 0 | Plant response rating, Foxtail, Giant [5, 7]: 0 | Plant response rating, Foxtail, Giant [5, 8]: 0 | Plant response rating, Foxtail, Giant [5, 9]: 0 | Plant response rating, Foxtail, Giant [5, 10]: 0 | Plant response rating, Crabgrass [6, 7]: 0 | Plant response rating, Crabgrass [6, 8]: 0 | Plant response rating, Crabgrass [6, 9]: 0 | Plant response rating, Crabgrass [6, 10]: 0
